# From patent publication US10130676B2, “Therapeutic peptides for cerebrovascular diseases” (Prime Bio-Drug Development Limited, priority 2015, dated 2018)
# Ends that are not written are not given here.
# Columns and labels:
# PC12 cells [1] = test: PC12 cell survival upon exposure to H2O2 (MTT); assay type: cell-based, rat; conditions: 10 ug/ml for each peptide; 200 μM H2O2, 24 h
# Experimental: To examine cell survival upon exposure to H2O2, PC12 cells were grown to confluence in 96 well plate and the medium was changed to serum-free medium containing 200 μM H2O2 (final volume 100 μl) for 24 h. […] After 24 h incubation, 100 μL MTT (final concentration 0.5 mg/ml) was added for additional 4 h incubation, and the cell survival was subsequently assessed by absorbance at 540 nm under a Fluostar microplate reader (BMG, Germany).
# (§1) Differences were considered significant at P<0.05.
# [2] = In vivo distribution of Cy5.5-conjugated peptides after i.v. injection (IVIS optical imaging); design: species or system C57B/L6 mice; conditions: for fluorescent intensity detected in the brain: 15 and 30 minutes after injection (FIG. 12); for fluorescent intensity detected in the spinal cord: 30 and 60 minutes after injection (FIG. 13)
# Description: The C57B/L6 mice (6˜8 week-old, female) were purchased from National Laboratory Animal Center, Taiwan. For optical imaging, animals were anesthetized by 2% isoflurane gas mixed with oxygen and intravenous injection (i.v.) of Cy5.5-conjugated peptide 1 or Cy5.5-conjugated peptide 5 (35 nmole/per mouse). After administration the mice were placed prone or supine in a dark box and a photographic image was first acquired at low light (exposure time: 5 seconds). At indicated time points after administration of probes, fluorescent signals were obtained using a CCD camera thermoelectrically cooled to −70° C. (Xenogen—IVIS® Spectrum Imaging System, Xenogen Technology). The photon integration period was 1-2 sec.
# PC12 cells [3] = test: PC12 cell survival upon exposure to L-glutamic acid (MTT); assay type: cell-based, rat; conditions: 10 ug/ml for each peptide; 1 mM L-glutamic acid
# Experimental: PC12 cells were obtained from the Chinese Academy of Medical Sciences, Beijing, China. To examine cell survival upon exposure to L-glutamic acid, PC12 cells were grown to confluence in 96 well plate in serum-free RPMI-1640. […] After 15-min incubation, medium was changed to serum-free RPMI-1640. After 24 h incubation, 100 μL MTT (final concentration 0.5 mg/ml) was added for additional 4 h incubation, and the cell survival was subsequently assessed by absorbance at 540 nm under a Fluostar microplate reader (BMG Germany).
# as §1
# PC12 cells [4] = test: PC12 cell survival under hypoglycemic, hypoxic or hypoglycemic-hypoxic conditions (MTT); conditions: for protective effect on PC12 from cell death under hypoglycemic and hypoxic conditions: 10 ug/ml for each peptide, 24 h; for protective effect against cell death induced by hypoxia / protective effects against cytotoxicity induced by hypoxia or by (hypoglycemia+hypoglycemia): peptide used individually; for protective effects against cytotoxicity induced by hypoxia or by (hypoglycemia+hypoglycemia): conditions as printed
# Experimental: PC12 cells were propagated and cultured as described above. For hypoglycemic condition, 125 μM Cobaltous Chloride (CoCl2, Sigma, USA) was added into the culture media when PC12 cells were in monolayer for further 24 h incubation as described. For induction of hypoglycemia, culture media was changed to glucose-free Eagle's medium when PC12 grew to monolayer for additional 24 h incubation. For hypoglycemic and hypoxic conditions, PC12 cells were cultured in glucose-free Eagle's media with addition of 125 μM CoCl2. After 24 h, cells were harvested and subject to MTT assay.
# Data were expressed as mean±standard error (SE) and multiple comparisons were evaluated by the analysis of variance and Neuman-Keuls test. Differences were considered significant at P<0.05. Neurological deficit data were evaluated by the nonparametric Mann-Whitney test.
# [5] = Circular dichroism (CD) of the peptide in PBS; assay type: physicochemical; conditions: 50 μM in PBS
# Experimental: (§2) Peptide-5 was dissolved in series of solution with different pH value and stood for 3 days. Adequate amount of each resulting solution was analyzed by HPLC (Agilent 1100 series) using a Nucleodur Pyramid C18 column (250 mm×4.6 mm, 5 μm) and gradient elution (0 min: 0.1% TFA in H2O; 10 min: 0.1% TFA in MeOH; 15 min: 0.1% TFA in MeOH) with 0.2 mL/min flow. The signals were monitored by UV detector at 220 nm wavelength. The sample collected in the stability test was also analyzed by MALDI-TOF Mass (Bruker Daltonics, Autoflex III) with 2,5-dihydroxybenzoic acid (DHB) as matrix. Furthermore, the portion respond to the signal at 7.8 min were collected and subject to MALDI-MS analysis. Peptide-5 was also prepared 50 μM in PBS and recorded from circular dichroism (Jasco, J-810).
# [6] = Stability test in solutions of different pH value (HPLC, MALDI-TOF); assay type: physicochemical; conditions: pH 2.0 to 8.5, 3 days, HPLC UV 220 nm
# Experimental: as §2
Substance,protective effect on H2O2-treated neural cells (cell survival) (PC12 cells [1]),fluorescent intensity detected in the brain [2],fluorescent intensity detected in the spinal cord [2],protective effect on L-glutamic-acid-treated PC12 cells (PC12 cells [3]),protective effect on PC12 from cell death under hypoglycemic and hypoxic conditions (PC12 cells [4]),protective effect against cell death induced by hypoxia (PC12 cells [4]),protective effects against cytotoxicity induced by hypoxia or by (hypoglycemia+hypoglycemia) (PC12 cells [4]),stability by CD (circular dichroism) [5],stability in solution with various pH value [6]
DEAQETAVSSH-OH [Peptide 1],a degree of protective effect,high fluorescent intensity,high fluorescent intensity,a degree of protective effect,had the protective effect as well,some protective effect,no protective effects,,
DEAQETAVSSHEQD-OH [Peptide 5],a degree of protective effect,high fluorescent intensity,high fluorescent intensity,a degree of protective effect,had the protective effect as well,some protective effect,no protective effects,extremely stable,"stable, even in a very acidic environment"
